Results taken from patent publication US10744135B2, “Use of an active substance in the treatment of melasma” (priority 2016, dated 2020).

System: lesions of telangiectatic melasma
Source text: As is known, the increase in pigmentation occurs to a greater extent during the day, wherein the action of the light is an important causal factor.

Brc1c(NC2=NCCN2)ccc2nccnc12 [brimonidine]
duration of effects in minimising the deterioration brought about by sunlight (applied in the morning): up to 9 hours
improvement of the lesions of telangiectatic melasma (topical, following a period of 30 to 60 minutes from application): immediate and obvious improvement
improvement in the hyperpigmentation of the skin of the melasma lesions (topical, minutes following application, patient (FIGS. 1-4)): effective improvement in the hyperpigmentation
